Experimental data: patent publication US5622983A, “N-substituted cycloalkyl and polycycloalkyl α-substituted Trp-Phe- and phenethylamine derivatives” (Warner-Lambert Company, priority 1995, dated 1997)

How the values were obtained:
[1] = target: T1, Central CCK Receptors (Mus musculus, UniProt P56481); test: Binding to central CCK receptors (tritiated-pentagastrin displacement, cerebral cortical membranes); conditions: read-out: Binding to Central CCK Receptors Ki; displacement of 2 nM tritiated-pentagastrin, mouse cerebral cortical membranes
T1 sequence (P56481 1-453): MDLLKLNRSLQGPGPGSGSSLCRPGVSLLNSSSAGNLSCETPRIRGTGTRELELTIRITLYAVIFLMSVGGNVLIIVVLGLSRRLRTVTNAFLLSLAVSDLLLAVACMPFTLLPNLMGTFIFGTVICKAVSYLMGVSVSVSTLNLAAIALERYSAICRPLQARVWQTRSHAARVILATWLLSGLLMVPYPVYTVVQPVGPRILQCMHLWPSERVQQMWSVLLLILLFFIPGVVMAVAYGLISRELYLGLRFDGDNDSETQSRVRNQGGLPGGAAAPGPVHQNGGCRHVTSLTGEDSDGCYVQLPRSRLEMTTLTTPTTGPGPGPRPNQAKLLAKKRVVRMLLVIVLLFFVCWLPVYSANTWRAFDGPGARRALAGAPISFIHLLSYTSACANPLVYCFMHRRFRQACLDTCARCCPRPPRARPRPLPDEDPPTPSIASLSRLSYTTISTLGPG
Protocol: The biological activity of compounds of the present invention was evaluated employing an initial screening test which rapidly and accurately measured the binding of the tested compound to known CCK receptor sites.
The resulting suspension was centrifuged, the supernate was discarded, and the pellet was washed by resuspension in Tris-HCl buffer followed by recentrifugation.
In saturation studies, cerebral cortical membranes were incubated at 23° C. for 120 minutes in a final volume of 500 μliter of Hepes incubation buffer (pH 7.2) together with 0.2-20 nM tritiated-pentagastrin (Amersham International, England).
In each case, the nonspecific binding was defined as that persisting in the presence of the unlabeled octapeptide CCK26-33 (10^-6 M).
Following incubation, radioactivity bound to membranes was separated from that free in solution by rapid filtration through Whatman GF/B filters and washed three times with 4 mL of ice cold Tris-HCl buffer.
The specific binding to CCK receptor sites was defined as the total bound tritiated-pentagastrin minus the amount of tritiated-pentagastrin bound in the presence of 10^-6 octapeptide, CCK26-33.
The inhibition constant (Ki) of the test compound was then calculated according to the Cheng-Prusoff equation: [formula] where [L] is the concentration of radiolabel and Ka is the equilibrium dissociation constant.

[2] = Antagonism of intra-accumbens amphetamine hyperactivity (antipsychotic activity); format: in vivo, rat; conditions: 20 mg/kg or 30 mg/kg intraperitoneal; amphetamine 20 μg
Protocol: Male Sprague Dawley (CD) Bradford strain rats were used. The rats were housed in groups of five at a temperature of 21°±2° C. on a 12 hour light-dark cycle of lights-on between 07 hours 00 minutes and […]. Rats were fed CRM diet (Labsure) and allowed water ad libitum.
Rats were anesthetized with chloral hydrate (400 mg/kg SC) and placed in a Kopf stereotaxic frame. Chronically indwelling guide cannulae (constructedof stainless steel tubing 0.65 mm diameter held bilaterally in Parspex holders) were implanted using standard stereotaxic techniques to terminate 3.5 mm above the center of the nucleus accumbens (Ant. 9.4, Vert. 0.0, Lat. 1.6) or 5.0 mm above the central nucleus of the amygdala (Ant. 5.8, Vert. -1.8, Lat. ±4.5) (atlas of De Groot, 1959). The guides were kept patent during a 14-day recovery period using stainless steel stylers, 0.3 mm diameter, which extended 0.5 mmbeyond the guide tips.
Rats were manually restrained and the stylers removed. Intracerebral injection cannulae, 0.3 mm diameter, were inserted and drugs delivered in a volume of 0.5 μl over 5 seconds (a further 55 seconds was allowed for deposition) from Hamilton syringes attached via polythene tubing to the injection units. […]
The abilities of the compounds (20) and (20A) to inhibit the hyperactivity caused by the injection of amphetamine into the nucleus accumbens of the rat was measured. […]

[3] = Withdrawal from long-term drug or alcohol treatment, mouse light/dark box test; format: in vivo; conditions: 24-hour withdrawal
Protocol: The effect of the compounds of the instant invention is illustrated, for example, in the mouse "light/dark box" test in FIGS. 5-12.
In FIG. 5, five animals were given nicotine, 0.1 mg/kg i.p.b.d. for 14 days. After a 24-hour withdrawal period, compound (20) was given at 1.0 mg/kg i.p.b.d.
FIG. 6 illustrates the effect of long-term treatment and withdrawal from nicotine using compound (20A). Five mice were given nicotine at 0.1 mg/kg i.p.b.d. for 14 days. After a withdrawal period of 24 hours, compound (20A) was given at 10 mg/kg i.p.b.d.
FIG. 7 illustrates the effect of long-term treatment and withdrawal from diazepam with intervention with compound (20). Five mice were given diazepam, at 10 mg/kg i.p.b.d. for seven days. Withdrawal was for a 24-hour period; compound 20 was given at 1.0 mg/kg i.p.b.d.
FIG. 8 illustrates the effect of compound (20A) on the long-term treatment and withdrawal from diazepam. Five mice were given diazepam at 10 mg/kg i.p.b.d. for seven days. After a withdrawal period of 24 hours, compound (20A) was given at 10 mg/kg i.p.b.d.
FIG. 9 illustrates the effect compound (20A) on the long-term treatment and withdrawal from alcohol. Five mice were given alcohol in drinking water 8% w/v for 14 days. After a withdrawal period of 24 hours, compound (20) was given at 1.0 mg/kg i.p.b.d.
Five mice were given alcohol in drinking water, 8% w/v for 14 days. After a withdrawal period of 24 hours, compound (20A) was given at 10 mg/kg i.p.b.d.
FIG. 11 illustrates the effectiveness in the long-term treatment and withdrawal from cocaine. Five mice were given cocaine as 1.0 mg/kg i.p.b.d. for 14 days.
Five mice were given cocaine at 1.0 mg/kg i.p.b.d. for 14 days after a withdrawal period of 24 hours, compound (20a) was given at 1.0 mg/kg i.p.b.d.

[4] = Light/dark exploration test (anxiolytic activity); format: in vivo, mouse
Protocol: In FIG. 2 the number of mice was 5 and the pretreatment time was 40 minutes. The compound was given p.o. in 0.1, 1, and 10 mg/kg doses.
The apparatus was an open-topped box, 45 cm long, 27 cm wide, and 27 cm high, divided into a small (2/5) area and a large (3/5) area by a partition that extended 20 cm above the walls. There was a 7.5×7.5 cm opening in the partition at floor level. The small compartment was painted black and the large compartment white. The floor of each compartment was marked into 9 cm squares. The white compartment was illuminated by a 100-watt tungsten bulb 17 cm above the box and the black compartment by a similarly placed 60-watt red bulb. The laboratory was illuminated with red light.
All tests were performed between 13 hundred hours, 0 minutes and 18 hundred hours, 0 minutes. Each mouse was tested by placing it in the center of the white area and allowing it to explore the novel environment for five minutes. Its behavior was recorded on videotape and the behavioral analysis was performed subsequently from the recording. Five parameters were measured: the latency to entry into the dark compartment, the time spent in each area, the number of transitions between compartments, the number of lines crossed in each compartment, and the number of rears in each compartment.
Drugs were dissolved in water or saline and administered either subcutaneously, intraperitoneally, or by mouth (PO) via a stomach needle.

[5] = Aspirin-induced gastric damage; format: in vivo, rat; conditions: 15 mg/kg PO
Protocol: Aspirin-induced gastric damage was assessed in groups of 10 rats each.
All animals were fasted for 24 hours before and throughout the experiment. Drug or vehicle was given 10 minutes before an oral dose of 1 mL of a 45-mg/mL suspension of aspirin in 0.5% carboxymethylcellulose (CMC).
The animals were sacrificed five hours after aspirin administration and the stomachs removed and opened for examination.

[6] = Palatable Diet Feeding assay; format: in vivo, rat; conditions: dose producing 50% of the maximum effect possible (zero food intake)
Protocol: In the Palatable Diet Feeding assay, adult male Hooded Lister rats weighing between 200-400 g were housed individually and trained to eat a palatable diet. This diet consisted of Nestles sweetened condensed milk, powdered rat food and rat water which when blended together set to a firm consistency. […] The intake of palatable diet was measured by weighing the food container before and after the 30-minute access period (limits of accuracy 0.1 g). Care was taken to collect and correct for any spillage of the diet. Rats had free access to pellet food and water except during the 30-minute test period.
After the training period, dose-response curves were constructed for CCK8 and several representative compounds of the present invention (n=8-10 rats per dose level).

[7] = test system: pentagastrin stimulated gastric acid secretion; test: Pentagastrin stimulated gastric acid secretion (Ghosh and Schild perfused stomach); format: in vivo, rat; conditions: 1 nmole/kg pentagastrin
Protocol: They were anesthetized with urethane (1.5 g/kg IP) and the trachea cannulated to aid spontaneous respiration. The stomach was perfused continuously using a modification of the original method of Ghosh & Schild in "Continuous recording of acid secretion in the rat", Br. J. Pharmac. […] The fluid was propelled by a roller pump (Gilson, Minipuls 2), through heating coils to bring its temperature to 37°±1° C. The perfusion fluid was collected by the fundic collecting funnel and passed to a pH electrode connected to a Jenway pH meter (PHM6). An output was taken from the pH meter to a Rikadenki chart recorder for the on-line recording of the pH of the gastric perfusate.
Pentagastrin was stored as a frozen aliquot and diluted to the required concentrations with sterile 0.9% w/v NaCl. Novel compounds were dissolved in sterile 0.9% w/v NaCl on the day of the experiment. Drugs were administered IV through a cannulated jugular vein as a bolus in a dose volume of 1 mL/kg washed in with 0.15 mL 0.9% w/v NaCl. Basal pH was allowed to stabilize before administration of compounds was begun.

CC(Cc1c[nH]c2ccccc12)(NC(=O)OC1CC2CCC1(C)C2(C)C)C(=O)NCC(NC(=O)CCC(=O)O)c1ccccc1 (stereo not drawn) [Example 20A, [1S -[1α,2β[S*(S*)], 4α]]-4-[[2-[[3-(1H-indol-3-yl)-2-methyl-1-oxo-2-[[[(1,7,7-trimethylbicyclo[2.2.1]hept-2-yl)oxy]carbonyl]amino]propyl]amino]-1-phenylethyl]amino]-4-oxobutanoic acid]
Ki [1]: 0.003 µM
hyperactivity caused by intra-accumbens injection of amphetamine [2]: reduced the hyperactivity
time spent in the light section after withdrawal from alcohol (FIG. 10) ([3]; alcohol 8% w/v in drinking water 14 days, compound 10 mg/kg i.p.b.d.): increased time spent in the light section
time spent in the light section after withdrawal from cocaine (FIG. 12) ([3]; cocaine 1.0 mg/kg i.p.b.d. 14 days, compound 1.0 mg/kg i.p.b.d.): increase in time spent in the light section
time spent in the light section after withdrawal from diazepam (FIG. 8) ([3]; diazepam 10 mg/kg i.p.b.d. seven days, compound 10 mg/kg i.p.b.d.): demonstrates the effectiveness of the compound
time spent in the light area after withdrawal from nicotine (FIG. 6) ([3]; nicotine 0.1 mg/kg i.p.b.d. 14 days, compound 10 mg/kg i.p.b.d.): increase of time spent in the light area

C[C@](Cc1c[nH]c2ccccc12)(NC(=O)OC1C2CC3CC(C2)CC1C3)C(=O)NC[C@H](NC(=O)/C=C/C(=O)O)c1ccccc1 (relative stereo) [Example 22, [R-[R*,R*-(E)]]-4-[[2-[[3-(1H-indol-3-yl)-2-methyl-1-oxo-2-[[(tricyclo[3.3.1.1^3,7]dec-2-yloxy)carbonyl]amino]propyl]amino]-1-pbenylethyl]amino]-4-oxo-2-butenoic acid]
time spent in the light area of the test box ([4]; SC): significantly (p <0.01) increased the time spent in the light area
anxiolytic activity by the subcutaneous route ([4]; subcutaneous): active

CNC(=C[N+](=O)[O-])NCCSCc1ccc(CN(C)C)o1 [ranitidine, reference compound]
inhibition of ulcer formation [5]: 74%
ulcer score ([5]; ±SD, saline control 12.1±6.85): 3.2±2.35

CN1C(=O)CN=C(c2ccccc2)c2cc(Cl)ccc21 [Diazepam, reference compound]
effect on crossings compared with compound (20) ([4]; 0.25 mg/kg IP, same experiment): effect identical to compound (20)

CC(Cc1c[nH]c2ccccc12)(NC(=O)OC1C2CC3CC(C2)CC1C3)C(=O)NC(COC(=O)CCC(=O)O)Cc1ccccc1 (stereo not drawn) [Example 16, [R-(R*,S*)]-2-[[3-(1H-indol-3-yl)-2-methyl-1-oxo-2-[[(tricyclo[3.3.1.1^3,7 dec-2-yloxy)carbonyl]amino]propyl]amino]-3-phenylpropyl butanedioate]
Ki [1]: 0.03 µM
Inhibition of Feeding on Rat Palatable Diet Assay I.P. MPE50 [6]: 10.5 mg/kg
reversibility of the antagonism [7]: reversible with full recovery of the response to pentagastrin
effect on stimulation of gastric acid secretion produced by pentagastrin ([7]; compound IV, anesthetized rat): attenuated
gastric acid secreted in response to pentagastrin after compound ([7]; cumulative dose of 1.1 μmole/kg, initial pentagastrin response 254 μmoles/1 H^+): 128 μmoles/1 H^+
